Columns and labels:
[1] = target: LRRK2 (Leucine-rich repeat kinase 2) (UniProt Q5S007)
Rab43 = target: T1, Rab43 (Homo sapiens, UniProt Q86YS6); assay: dynamic scanning fluorimetry (SYPRO Orange); type: binding; settings: 1 mM nucleotide, 4 uM protein, 2.5 mM MgCl2, pH 7.4
T1 construct: near full-length without C-terminal prenylation region; pET-28a, His6 tag cut by TEV; E. coli BL21(DE3)
T1 sequence (Q86YS6 1-185 limits assumed): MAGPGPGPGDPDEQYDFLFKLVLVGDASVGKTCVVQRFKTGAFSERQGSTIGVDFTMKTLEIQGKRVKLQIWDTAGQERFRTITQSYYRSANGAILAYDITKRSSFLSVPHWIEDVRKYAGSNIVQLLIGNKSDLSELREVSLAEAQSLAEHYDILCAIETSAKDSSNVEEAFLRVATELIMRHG

Rab1A = target: T2, Rab1A (Homo sapiens, UniProt P62820); assay: dynamic scanning fluorimetry (SYPRO Orange); type: binding; settings: 1 mM nucleotide, 4 uM protein, 2.5 mM MgCl2, pH 7.4
T2 construct: near full-length without C-terminal prenylation region; pET-28a, His6 tag cut by TEV; E. coli BL21(DE3)
T2 sequence (P62820 1-203 limits assumed): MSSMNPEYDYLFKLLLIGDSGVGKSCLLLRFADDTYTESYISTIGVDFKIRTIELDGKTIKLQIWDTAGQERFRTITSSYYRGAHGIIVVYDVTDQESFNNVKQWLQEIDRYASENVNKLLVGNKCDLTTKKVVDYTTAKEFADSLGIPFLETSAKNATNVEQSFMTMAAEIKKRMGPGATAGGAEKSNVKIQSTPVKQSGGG

Rab8A = target: T3, Rab8A (Homo sapiens, UniProt P61006); assay: dynamic scanning fluorimetry (SYPRO Orange); type: binding; settings: 1 mM nucleotide, 4 uM protein, 2.5 mM MgCl2, pH 7.4; shift relative to apo
T3 construct: near full-length without C-terminal prenylation region; pET-28a, His6 tag cut by TEV; E. coli BL21(DE3)
T3 sequence (P61006 1-203 limits assumed): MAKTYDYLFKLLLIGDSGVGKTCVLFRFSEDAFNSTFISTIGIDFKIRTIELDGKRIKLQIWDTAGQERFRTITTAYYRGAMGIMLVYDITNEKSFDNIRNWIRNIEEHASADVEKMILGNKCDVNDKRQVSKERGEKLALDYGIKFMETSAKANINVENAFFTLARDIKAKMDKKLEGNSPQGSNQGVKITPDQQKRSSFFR

Rab3A = target: T4, Rab3A (Homo sapiens, UniProt P20336); assay: dynamic scanning fluorimetry (SYPRO Orange); type: binding; settings: 1 mM nucleotide, 4 uM protein, 2.5 mM MgCl2, pH 7.4
T4 construct: near full-length without C-terminal prenylation region; pET-28a, His6 tag cut by TEV; E. coli BL21(DE3)
T4 sequence (P20336 1-200 limits assumed): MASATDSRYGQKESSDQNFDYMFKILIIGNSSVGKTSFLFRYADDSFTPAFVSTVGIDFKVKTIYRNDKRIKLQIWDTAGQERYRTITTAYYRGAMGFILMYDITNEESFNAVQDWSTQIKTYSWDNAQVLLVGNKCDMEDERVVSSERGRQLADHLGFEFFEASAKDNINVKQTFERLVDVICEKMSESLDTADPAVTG

Rab12 = target: T5, Rab12 (Homo sapiens, UniProt Q6IQ22); assay: dynamic scanning fluorimetry (SYPRO Orange); type: binding; settings: 1 mM nucleotide, 4 uM protein, 2.5 mM MgCl2, pH 7.4
T5 construct: near full-length without C-terminal prenylation region; pET-28a, His6 tag cut by TEV; E. coli BL21(DE3)
T5 sequence (Q6IQ22 97-318 limits assumed): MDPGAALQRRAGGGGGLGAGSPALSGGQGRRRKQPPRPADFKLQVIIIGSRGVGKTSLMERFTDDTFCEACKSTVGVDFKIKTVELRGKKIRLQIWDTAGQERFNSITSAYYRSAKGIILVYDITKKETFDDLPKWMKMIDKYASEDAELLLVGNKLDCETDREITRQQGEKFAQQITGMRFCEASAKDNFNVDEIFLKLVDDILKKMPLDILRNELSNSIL

Rab9A = target: T6, Rab9A (Homo sapiens, UniProt P51151); assay: dynamic scanning fluorimetry (SYPRO Orange); type: binding; settings: 1 mM nucleotide, 4 uM protein, 2.5 mM MgCl2, pH 7.4
T6 construct: near full-length without C-terminal prenylation region; pET-28a, His6 tag cut by TEV; E. coli BL21(DE3)
T6 sequence (P51151 1-180 limits assumed): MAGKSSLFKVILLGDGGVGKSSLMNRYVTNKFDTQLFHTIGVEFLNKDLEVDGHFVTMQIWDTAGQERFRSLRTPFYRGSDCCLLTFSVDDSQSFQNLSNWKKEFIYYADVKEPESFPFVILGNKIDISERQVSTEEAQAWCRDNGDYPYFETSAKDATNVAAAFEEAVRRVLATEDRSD

Rab8B = target: T7, Rab8B (Homo sapiens, UniProt Q92930); assay: dynamic scanning fluorimetry (SYPRO Orange); type: binding; settings: 1 mM nucleotide, 4 uM protein, 2.5 mM MgCl2, pH 7.4
T7 construct: near full-length without C-terminal prenylation region; pET-28a, His6 tag cut by TEV; E. coli BL21(DE3)
T7 sequence (Q92930 1-203 limits assumed): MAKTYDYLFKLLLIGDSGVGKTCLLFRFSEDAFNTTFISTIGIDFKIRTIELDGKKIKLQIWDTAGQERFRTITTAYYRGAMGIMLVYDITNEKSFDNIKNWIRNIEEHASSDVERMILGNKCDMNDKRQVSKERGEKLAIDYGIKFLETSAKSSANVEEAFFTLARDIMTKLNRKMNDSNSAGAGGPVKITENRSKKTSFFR

Rab10 = target: T8, Rab10 (Homo sapiens, UniProt P61026); assay: dynamic scanning fluorimetry (SYPRO Orange); type: binding; settings: 1 mM nucleotide, 4 uM protein, 2.5 mM MgCl2, pH 7.4
T8 construct: near full-length without C-terminal prenylation region; pET-28a, His6 tag cut by TEV; E. coli BL21(DE3)
T8 sequence (P61026 1-181 limits assumed): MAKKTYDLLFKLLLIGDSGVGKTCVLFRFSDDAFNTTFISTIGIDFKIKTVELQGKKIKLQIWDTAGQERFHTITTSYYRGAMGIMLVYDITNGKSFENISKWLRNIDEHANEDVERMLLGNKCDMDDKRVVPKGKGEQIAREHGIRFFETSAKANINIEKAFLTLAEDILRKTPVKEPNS

Rab29 = target: T9, Rab29 (Homo sapiens, UniProt O14966); assay: dynamic scanning fluorimetry (SYPRO Orange); type: binding; settings: 1 mM nucleotide, 4 uM protein, 2.5 mM MgCl2, pH 7.4
T9 construct: near full-length without C-terminal prenylation region; pET-28a, His6 tag cut by TEV; E. coli BL21(DE3)
T9 sequence (O14966 1-195 limits assumed): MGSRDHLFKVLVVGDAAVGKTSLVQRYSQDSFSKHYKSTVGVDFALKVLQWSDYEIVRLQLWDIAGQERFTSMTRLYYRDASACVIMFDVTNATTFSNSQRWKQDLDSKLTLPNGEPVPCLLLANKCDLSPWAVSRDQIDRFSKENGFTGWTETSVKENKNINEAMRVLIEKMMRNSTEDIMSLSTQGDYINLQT

Rab2A = target: T10, Rab2A (Homo sapiens, UniProt P61019); assay: dynamic scanning fluorimetry (SYPRO Orange); type: binding; settings: 1 mM nucleotide, 4 uM protein, 2.5 mM MgCl2, pH 7.4
T10 construct: near full-length without C-terminal prenylation region; pET-28a, His6 tag cut by TEV; E. coli BL21(DE3)
T10 sequence (P61019 1-210 limits assumed): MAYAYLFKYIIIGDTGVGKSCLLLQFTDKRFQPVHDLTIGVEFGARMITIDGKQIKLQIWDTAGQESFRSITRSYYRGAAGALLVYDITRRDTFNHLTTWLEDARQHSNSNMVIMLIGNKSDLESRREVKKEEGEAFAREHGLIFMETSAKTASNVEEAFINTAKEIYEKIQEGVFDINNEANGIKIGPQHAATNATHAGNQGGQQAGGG

Rab15 = target: T11, Rab15 (Homo sapiens, UniProt P59190); assay: dynamic scanning fluorimetry (SYPRO Orange); type: binding; settings: 1 mM nucleotide, 4 uM protein, 2.5 mM MgCl2, pH 7.4
T11 construct: near full-length without C-terminal prenylation region; pET-28a, His6 tag cut by TEV; E. coli BL21(DE3)
T11 sequence (P59190 1-208 limits assumed): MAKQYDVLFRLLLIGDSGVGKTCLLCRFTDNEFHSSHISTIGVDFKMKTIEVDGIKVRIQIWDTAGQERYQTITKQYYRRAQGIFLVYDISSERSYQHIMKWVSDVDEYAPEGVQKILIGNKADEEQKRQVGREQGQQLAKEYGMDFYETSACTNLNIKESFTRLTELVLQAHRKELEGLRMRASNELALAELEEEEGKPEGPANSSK

Rab13 = target: T12, Rab13 (Homo sapiens, UniProt P51153); assay: dynamic scanning fluorimetry (SYPRO Orange); type: binding; settings: 1 mM nucleotide, 4 uM protein, 2.5 mM MgCl2, pH 7.4
T12 construct: near full-length without C-terminal prenylation region; pET-28a, His6 tag cut by TEV; E. coli BL21(DE3)
T12 sequence (P51153 1-180 limits assumed): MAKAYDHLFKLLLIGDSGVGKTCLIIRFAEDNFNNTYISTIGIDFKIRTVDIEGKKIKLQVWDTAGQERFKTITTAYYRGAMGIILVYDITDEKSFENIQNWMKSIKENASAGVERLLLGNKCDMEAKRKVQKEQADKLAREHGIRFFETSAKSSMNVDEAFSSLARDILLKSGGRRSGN

Rab7A = target: T13, Rab7A (Homo sapiens, UniProt P51149); assay: dynamic scanning fluorimetry (SYPRO Orange); type: binding; settings: 1 mM nucleotide, 4 uM protein, 2.5 mM MgCl2, pH 7.4
T13 construct: near full-length without C-terminal prenylation region; pET-28a, His6 tag cut by TEV; E. coli BL21(DE3)
T13 sequence (P51149 1-185 limits assumed): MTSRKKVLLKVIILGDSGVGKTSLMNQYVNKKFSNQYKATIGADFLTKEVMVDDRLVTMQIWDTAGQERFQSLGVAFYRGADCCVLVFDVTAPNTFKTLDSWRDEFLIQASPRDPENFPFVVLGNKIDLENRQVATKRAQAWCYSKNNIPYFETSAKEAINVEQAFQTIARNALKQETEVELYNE

Chain of LRRK2 (Leucine-rich repeat kinase 2) (Q5S007 whole entry): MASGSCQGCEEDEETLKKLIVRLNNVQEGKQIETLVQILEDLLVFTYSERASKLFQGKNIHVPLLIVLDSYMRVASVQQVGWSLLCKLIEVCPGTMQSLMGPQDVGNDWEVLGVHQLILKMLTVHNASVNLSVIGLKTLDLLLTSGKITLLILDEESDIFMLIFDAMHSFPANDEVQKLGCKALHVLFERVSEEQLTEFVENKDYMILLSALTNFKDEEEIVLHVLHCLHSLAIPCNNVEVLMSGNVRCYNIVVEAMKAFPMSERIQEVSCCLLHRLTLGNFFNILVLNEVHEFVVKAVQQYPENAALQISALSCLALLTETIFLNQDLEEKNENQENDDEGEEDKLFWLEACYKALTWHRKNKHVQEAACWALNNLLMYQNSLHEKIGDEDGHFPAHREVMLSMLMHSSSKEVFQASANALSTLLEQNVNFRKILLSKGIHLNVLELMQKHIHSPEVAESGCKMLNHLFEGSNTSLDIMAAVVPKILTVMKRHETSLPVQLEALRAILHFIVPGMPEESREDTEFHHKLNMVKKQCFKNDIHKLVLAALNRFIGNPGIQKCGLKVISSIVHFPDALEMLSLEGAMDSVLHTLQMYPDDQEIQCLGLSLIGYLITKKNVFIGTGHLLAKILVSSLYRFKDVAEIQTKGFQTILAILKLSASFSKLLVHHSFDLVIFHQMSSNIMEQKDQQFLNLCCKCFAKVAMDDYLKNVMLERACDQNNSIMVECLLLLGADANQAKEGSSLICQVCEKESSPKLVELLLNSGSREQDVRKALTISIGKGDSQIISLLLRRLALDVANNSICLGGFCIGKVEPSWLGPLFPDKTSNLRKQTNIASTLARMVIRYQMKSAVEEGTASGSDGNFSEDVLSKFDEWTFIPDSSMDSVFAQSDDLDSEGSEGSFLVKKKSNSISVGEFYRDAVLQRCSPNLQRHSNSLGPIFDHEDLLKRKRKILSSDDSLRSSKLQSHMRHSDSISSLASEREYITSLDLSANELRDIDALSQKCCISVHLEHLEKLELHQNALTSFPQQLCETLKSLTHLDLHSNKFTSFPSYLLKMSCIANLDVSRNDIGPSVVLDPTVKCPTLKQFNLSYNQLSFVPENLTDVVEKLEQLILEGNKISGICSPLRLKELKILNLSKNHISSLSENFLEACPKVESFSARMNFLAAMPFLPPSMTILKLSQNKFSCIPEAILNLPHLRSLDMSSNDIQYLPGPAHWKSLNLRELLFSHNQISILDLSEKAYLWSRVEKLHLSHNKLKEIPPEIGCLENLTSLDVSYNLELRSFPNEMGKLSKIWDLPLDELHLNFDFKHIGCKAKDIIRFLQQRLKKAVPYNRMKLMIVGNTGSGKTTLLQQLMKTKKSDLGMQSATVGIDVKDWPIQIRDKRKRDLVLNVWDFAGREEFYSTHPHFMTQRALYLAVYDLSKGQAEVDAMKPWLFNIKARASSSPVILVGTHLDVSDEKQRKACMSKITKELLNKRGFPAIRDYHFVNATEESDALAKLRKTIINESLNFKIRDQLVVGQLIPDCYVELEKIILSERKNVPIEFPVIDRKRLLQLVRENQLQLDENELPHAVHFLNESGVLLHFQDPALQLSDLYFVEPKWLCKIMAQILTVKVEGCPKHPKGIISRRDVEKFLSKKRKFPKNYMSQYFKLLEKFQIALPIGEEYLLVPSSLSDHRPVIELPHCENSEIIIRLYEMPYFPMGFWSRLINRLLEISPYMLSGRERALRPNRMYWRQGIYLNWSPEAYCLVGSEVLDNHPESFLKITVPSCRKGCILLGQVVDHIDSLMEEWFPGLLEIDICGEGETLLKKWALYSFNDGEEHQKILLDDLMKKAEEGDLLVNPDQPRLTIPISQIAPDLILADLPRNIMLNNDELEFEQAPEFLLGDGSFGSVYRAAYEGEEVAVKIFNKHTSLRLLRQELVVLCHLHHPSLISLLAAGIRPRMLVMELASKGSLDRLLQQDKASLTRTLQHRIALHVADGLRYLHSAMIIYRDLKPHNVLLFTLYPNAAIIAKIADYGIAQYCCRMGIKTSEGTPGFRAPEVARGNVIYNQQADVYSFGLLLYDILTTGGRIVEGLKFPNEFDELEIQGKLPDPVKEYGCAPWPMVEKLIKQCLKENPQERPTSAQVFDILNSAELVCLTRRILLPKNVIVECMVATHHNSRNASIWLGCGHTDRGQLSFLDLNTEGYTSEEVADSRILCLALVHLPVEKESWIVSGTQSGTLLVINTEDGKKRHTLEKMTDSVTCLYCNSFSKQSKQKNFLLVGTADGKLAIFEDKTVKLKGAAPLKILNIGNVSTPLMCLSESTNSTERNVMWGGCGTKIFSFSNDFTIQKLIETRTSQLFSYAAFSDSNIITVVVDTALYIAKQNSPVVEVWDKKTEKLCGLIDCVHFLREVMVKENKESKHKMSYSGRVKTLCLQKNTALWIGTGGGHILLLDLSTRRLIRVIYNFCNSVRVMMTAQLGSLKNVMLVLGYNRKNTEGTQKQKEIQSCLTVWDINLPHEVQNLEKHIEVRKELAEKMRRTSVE

| Compound | dTm (Rab8A) [K] | Tm (Rab9A) | Tm (Rab10) | Tm (Rab13) | Tm (Rab7A) | other results |
| --- | --- | --- | --- | --- | --- | --- |
| Rab8A R104A (from UniProt P61006 1-207) (natural protein) | – | – | – | – | – | T72 phosphograde of the Rab8A:GDP variant after phosphorylation by LRRK2, relative to wildtype Rab8A (ESI-TOF MS kinase activity assay) (fold (reduced)) [1]: 2 |
| Nc1nc2c(ncn2[C@@H]2O[C@H](COP(=O)(O)OP(=O)(O)O)[C@@H](O)[C@H]2O)c(=O)[nH]1 [GDP] | 15 | for several Rabs including Rab9A and Rab13, the Rab:GDP and Rab:GTP complexes displayed equal stability | All Rabs from the panel bound to and were stabilized by guanine nucleotides. | for several Rabs including Rab9A and Rab13, the Rab:GDP and Rab:GTP complexes displayed equal stability | All Rabs from the panel bound to and were stabilized by guanine nucleotides. | Tm (Rab43): All Rabs from the panel bound to and were stabilized by guanine nucleotides.; Tm (Rab1A): All Rabs from the panel bound to and were stabilized by guanine nucleotides.; Tm (Rab3A): All Rabs from the panel bound to and were stabilized by guanine nucleotides.; Tm (Rab12): All Rabs from the panel bound to and were stabilized by guanine nucleotides.; Tm (Rab8B): All Rabs from the panel bound to and were stabilized by guanine nucleotides.; Tm (Rab29): All Rabs from the panel bound to and were stabilized by guanine nucleotides.; Tm (Rab2A): All Rabs from the panel bound to and were stabilized by guanine nucleotides.; Tm (Rab15): All Rabs from the panel bound to and were stabilized by guanine nucleotides. |
| Rab8A E108R (from UniProt P61006 1-207) (natural protein) | – | – | – | – | – | T72 phosphograde of the Rab8A:GDP variant after phosphorylation by LRRK2, relative to wildtype Rab8A (ESI-TOF MS kinase activity assay) (fold (increase)) [1]: 18 |
| Nc1nc2c(ncn2[C@@H]2O[C@H](COP(=O)(O)OP(=O)(O)OP(=O)(O)O)[C@@H](O)[C@H]2O)c(=O)[nH]1 [GTP] | 21 | for several Rabs including Rab9A and Rab13, the Rab:GDP and Rab:GTP complexes displayed equal stability | All Rabs from the panel bound to and were stabilized by guanine nucleotides. | for several Rabs including Rab9A and Rab13, the Rab:GDP and Rab:GTP complexes displayed equal stability | All Rabs from the panel bound to and were stabilized by guanine nucleotides. | – |
